From ChEMBL document CHEMBL1141373 (J Med Chem, 2007)
pEC50, pIC50, pKi: −log10 of the molar value. Values belong to the compound of their own block, whether it stands above or below them. Active and inactive are the calls of the source. The rule behind the calls is not given here.

Legend:
[1] = target: T1, Glutamate receptor ionotropic, NMDA 2B (Homo sapiens, UniProt Q05586+Q13224); assay: Displacement of [3H](E)-N1-(2-methoxybenzyl)cinnamamidine from human NR2B expressed in Ltk- cells; type: cell-based
[2] = target: Cytochrome P450 2D6 (Homo sapiens, UniProt P10635); assay: Inhibition of CYP2D6 in human liver microsomes
[3] = target: Cytochrome P450 3A4 (Homo sapiens, UniProt P08684); assay: Inhibition of CYP3A4 in human liver microsomes
[4] = target: Cytochrome P450 2C9 (Homo sapiens, UniProt P11712)
Description: Inhibition of CYP2C9 in human liver microsomes

[5] = target: T1, Glutamate receptor ionotropic, NMDA 2B; assay: Antagonist activity at human NR2B expressed in Ltk- cells by calcium flux assay; type: functional, cell-based
[6] = Plasma concentration in rat at 30 mg/kg, po after 1 hr; type: ADME, organism-based; set-up: dose 30 mg/kg, route oral
[7] = Oral bioavailability in Sprague-Dawley rat at 10 mg/kg, po; type: ADME, organism-based; conditions: in vivo
[8] = system: Rattus norvegicus; assay: Reversal of carrageenan-induced mechanical hyperalgesia in po dosed rat; type: functional
[9] = system: Rattus norvegicus; assay: AUC in Sprague-Dawley rat at 2 mg/kg, iv; type: ADME, organism-based, Plasma; set-up: dose 2 mg/kg, route intravenous; conditions: in vivo
[10] = Oral bioavailability in Beagle dog at 1 mg/kg, po; type: ADME, organism-based, Canis lupus familiaris; conditions: in vivo
[11] = Half life in Sprague-Dawley rat at 2 mg/kg, iv; type: ADME, organism-based; set-up: dose 2 mg/kg, route intravenous; conditions: in vivo
[12] = Cmax in Beagle dog at 1 mg/kg, po; type: ADME, organism-based, Canis lupus familiaris; set-up: dose 1 mg/kg, route oral; conditions: in vivo
[13] = species: Homo sapiens; assay: Selectivity for human NR2B over hERG
[14] = Drug level in rat brain at 30 mg/kg, po after 1 hr; type: ADME, organism-based; set-up: dose 30 mg/kg, route oral; conditions: read-out: Drug uptake
[15] = system: Rattus norvegicus; assay: Reversal of carrageenan-induced mechanical hyperalgesia in iv dosed rat; type: functional
[16] = Half life in Beagle dog at 0.5 mg/kg, iv; type: ADME, organism-based, Canis lupus familiaris; set-up: dose 0.5 mg/kg, route intravenous; conditions: in vivo
[17] = Cmax in Sprague-Dawley rat at 10 mg/kg, po; type: ADME, organism-based; set-up: dose 10 mg/kg, route oral; conditions: in vivo
[18] = target: Glutamate receptor ionotropic, NMDA 2A (Homo sapiens, UniProt Q05586+Q12879); assay: Activity at human NR2A expressed in Ltk- cells by calcium flux assay; type: cell-based
[19] = system: Canis familiaris; assay: AUC in Beagle dog at 0.5 mg/kg, iv; type: ADME, organism-based, Canis lupus familiaris, Plasma; set-up: dose 0.5 mg/kg, route intravenous; conditions: in vivo
[20] = Drug level in hyperalgesic rat brain at 10 mg/kg, po after 1 hr; type: ADME, organism-based; set-up: dose 10 mg/kg, route oral; conditions: read-out: Drug uptake
[21] = target: Glutamate receptor ionotropic, NMDA 2D (Homo sapiens) (UniProt O15399); assay: Activity at human NR2D expressed in Ltk- cells by patch clamp assay upto 30 uM; type: cell-based
[22] = Plasma protein binding in rat; type: ADME, cell-free; conditions: read-out: PPB (converted)
[23] = Drug level in hyperalgesic rat plasma at 1 mg/kg, po after 15 mins; type: ADME, organism-based; set-up: dose 1 mg/kg, route oral
[24] = Drug level in hyperalgesic rat brain at 1 mg/kg, po after 15 mins; type: ADME, organism-based; set-up: dose 1 mg/kg, route oral; conditions: read-out: Drug uptake
[25] = Cmax in rhesus monkey at 1 mg/kg, po; type: ADME, organism-based, Macaca mulatta; set-up: dose 1 mg/kg, route oral; conditions: in vivo
[26] = Half life in Beagle dog at 1 mg/kg, iv; type: ADME, organism-based, Canis lupus familiaris; set-up: dose 1 mg/kg, route intravenous; conditions: in vivo
[27] = system: Rattus norvegicus; assay: Reversal of carrageenan-induced mechanical hyperalgesia in rat at 10 mg/kg, po after 1 hr; type: functional
[28] = target: Glutamate receptor ionotropic, NMDA 2C (Homo sapiens) (UniProt Q14957); assay: Activity at human NR2C expressed in Ltk- cells by patch clamp assay upto 30 uM; type: cell-based
[29] = system: Rattus norvegicus; assay: Reversal of carrageenan-induced mechanical hyperalgesia in rat at 3 mg/kg, po in presence of morphine; type: functional, organism-based; set-up: dose 3 mg/kg
[30] = system: Rattus norvegicus; assay: Reversal of carrageenan-induced mechanical hyperalgesia in rat at 3 mg/kg, po in presence of indomethacin; type: functional, organism-based; set-up: dose 3 mg/kg
[31] = Half life in rhesus monkey at 1 mg/kg, iv; type: ADME, organism-based, Macaca mulatta; set-up: dose 1 mg/kg, route intravenous; conditions: in vivo
[32] = system: Rattus norvegicus; assay: Reversal of carrageenan-induced mechanical hyperalgesia in iv dosed rat after 15 mins; type: functional
[33] = system: Rhesus monkey; assay: AUC in rhesus monkey at 1 mg/kg, iv; type: ADME, organism-based, Macaca mulatta, Plasma; set-up: dose 1 mg/kg, route intravenous; conditions: in vivo
[34] = Oral bioavailability in rhesus monkey at 1 mg/kg, po; type: ADME, organism-based, Macaca mulatta; conditions: in vivo
[35] = system: Rattus norvegicus; assay: Reversal of allodynia in rat spinal nerve ligation model at 3 mg/kg, iv; type: functional, organism-based; set-up: dose 3 mg/kg
[36] = Ratio of drug level in brain against plasma in hyperalgesic rat
[37] = system: Rattus norvegicus; assay: Plasma concentration in haloperidol-induced cataleptic rat at 30 mg/kg, po; type: ADME, organism-based; set-up: dose 30 mg/kg, route oral; conditions: in vivo
[38] = system: Ltk-; assay: Activity at human NR1a expressed in Ltk- cells by patch clamp assay upto 30 uM; type: cell-based
[39] = system: Rattus norvegicus; assay: Effect on allodynia in rat spinal nerve ligation model at 30 mg/kg, po; type: functional, organism-based; set-up: dose 30 mg/kg
[40] = system: Rattus norvegicus; assay: Reversal of allodynia in rat spinal nerve ligation model at 10 mg/kg, iv; type: functional, organism-based; set-up: dose 10 mg/kg
[41] = target: Glutamate receptor ionotropic, NMDA 2A (Homo sapiens) (UniProt Q12879); assay: Activity at human NR2A expressed in Ltk- cells by patch clamp assay upto 30 uM; type: cell-based
[42] = target: Glutamate receptor ionotropic, NMDA 2B (Rattus norvegicus) (UniProt Q00960); assay: Receptor occupancy ex vivo by displacement of [3H](E)-N1-(2-methoxybenzyl)-cinnamamidine binding from NR2B in rat brain at 10 uM; type: tissue-based
[43] = Drug level in hyperalgesic rat plasma at 10 mg/kg, po after 1 hr; type: ADME, organism-based; set-up: dose 10 mg/kg, route oral
[44] = system: Rattus norvegicus; assay: […] in rat measured as motor impairment upto 100 mg/kg, po by rotarod assay; type: functional, organism-based; set-up: dose 100 mg/kg
[45] = system: Canis familiaris; assay: AUC in Beagle dog at 1 mg/kg, iv; type: ADME, organism-based, Canis lupus familiaris, Plasma; set-up: dose 1 mg/kg, route intravenous; conditions: in vivo
[46] = target: Voltage-gated inwardly rectifying potassium channel KCNH2 (Homo sapiens, UniProt Q12809)
Description: Displacement of [35S]MK-499 from hERG potassium channel expressed in HEK293 cells

T1 sequence (Q13224 whole entry, one chain of several): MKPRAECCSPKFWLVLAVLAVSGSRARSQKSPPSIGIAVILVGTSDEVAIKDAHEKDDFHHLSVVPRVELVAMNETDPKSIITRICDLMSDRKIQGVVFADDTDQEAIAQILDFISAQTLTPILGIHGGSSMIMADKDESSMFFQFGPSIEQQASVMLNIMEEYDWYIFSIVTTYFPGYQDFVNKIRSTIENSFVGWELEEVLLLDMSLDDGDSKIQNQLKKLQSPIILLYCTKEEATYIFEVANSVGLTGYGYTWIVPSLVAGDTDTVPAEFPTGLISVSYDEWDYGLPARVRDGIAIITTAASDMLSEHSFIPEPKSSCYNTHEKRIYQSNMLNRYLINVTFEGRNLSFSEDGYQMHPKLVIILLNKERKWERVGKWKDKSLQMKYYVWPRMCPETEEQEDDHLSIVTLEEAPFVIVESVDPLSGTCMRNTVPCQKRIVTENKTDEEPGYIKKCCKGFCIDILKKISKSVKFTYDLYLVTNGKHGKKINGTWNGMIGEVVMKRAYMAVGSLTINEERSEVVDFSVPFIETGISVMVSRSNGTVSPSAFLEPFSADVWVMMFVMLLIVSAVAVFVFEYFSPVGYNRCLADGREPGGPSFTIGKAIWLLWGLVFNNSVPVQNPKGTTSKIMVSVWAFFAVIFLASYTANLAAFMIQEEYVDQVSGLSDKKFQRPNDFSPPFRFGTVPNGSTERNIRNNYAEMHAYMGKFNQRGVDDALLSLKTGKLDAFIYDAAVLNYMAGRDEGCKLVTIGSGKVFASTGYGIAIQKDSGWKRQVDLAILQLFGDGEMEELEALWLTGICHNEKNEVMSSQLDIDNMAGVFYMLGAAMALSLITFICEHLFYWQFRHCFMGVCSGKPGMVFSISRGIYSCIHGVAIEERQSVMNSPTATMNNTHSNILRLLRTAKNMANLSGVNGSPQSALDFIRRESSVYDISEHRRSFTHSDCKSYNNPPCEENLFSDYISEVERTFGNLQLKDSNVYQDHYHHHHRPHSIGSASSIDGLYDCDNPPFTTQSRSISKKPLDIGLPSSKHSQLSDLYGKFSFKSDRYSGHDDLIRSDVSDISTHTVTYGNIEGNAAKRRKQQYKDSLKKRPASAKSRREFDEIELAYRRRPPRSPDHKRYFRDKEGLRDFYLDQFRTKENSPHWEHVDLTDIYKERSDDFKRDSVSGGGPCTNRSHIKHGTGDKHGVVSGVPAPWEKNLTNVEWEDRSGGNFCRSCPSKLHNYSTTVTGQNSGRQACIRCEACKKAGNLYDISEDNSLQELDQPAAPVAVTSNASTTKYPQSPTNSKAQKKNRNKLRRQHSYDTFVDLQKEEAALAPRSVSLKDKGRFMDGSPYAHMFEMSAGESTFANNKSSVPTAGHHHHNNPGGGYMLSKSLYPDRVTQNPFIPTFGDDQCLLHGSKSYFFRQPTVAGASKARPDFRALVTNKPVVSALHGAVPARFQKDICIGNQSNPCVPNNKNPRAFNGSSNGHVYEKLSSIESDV
Cytochrome P450 2C9, sequence (P11712 whole entry): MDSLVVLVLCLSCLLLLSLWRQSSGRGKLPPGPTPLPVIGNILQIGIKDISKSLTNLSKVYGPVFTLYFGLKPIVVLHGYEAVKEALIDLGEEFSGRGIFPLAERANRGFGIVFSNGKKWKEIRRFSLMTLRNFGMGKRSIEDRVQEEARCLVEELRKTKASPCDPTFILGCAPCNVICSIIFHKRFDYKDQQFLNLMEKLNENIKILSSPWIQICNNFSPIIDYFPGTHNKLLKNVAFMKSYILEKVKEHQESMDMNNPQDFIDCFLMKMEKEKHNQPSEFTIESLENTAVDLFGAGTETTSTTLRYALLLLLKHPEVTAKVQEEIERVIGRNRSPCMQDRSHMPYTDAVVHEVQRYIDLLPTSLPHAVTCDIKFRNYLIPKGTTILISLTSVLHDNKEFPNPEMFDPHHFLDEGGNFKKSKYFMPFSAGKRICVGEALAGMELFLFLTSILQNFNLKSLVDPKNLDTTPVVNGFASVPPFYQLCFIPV
Cytochrome P450 3A4, sequence (P08684 whole entry): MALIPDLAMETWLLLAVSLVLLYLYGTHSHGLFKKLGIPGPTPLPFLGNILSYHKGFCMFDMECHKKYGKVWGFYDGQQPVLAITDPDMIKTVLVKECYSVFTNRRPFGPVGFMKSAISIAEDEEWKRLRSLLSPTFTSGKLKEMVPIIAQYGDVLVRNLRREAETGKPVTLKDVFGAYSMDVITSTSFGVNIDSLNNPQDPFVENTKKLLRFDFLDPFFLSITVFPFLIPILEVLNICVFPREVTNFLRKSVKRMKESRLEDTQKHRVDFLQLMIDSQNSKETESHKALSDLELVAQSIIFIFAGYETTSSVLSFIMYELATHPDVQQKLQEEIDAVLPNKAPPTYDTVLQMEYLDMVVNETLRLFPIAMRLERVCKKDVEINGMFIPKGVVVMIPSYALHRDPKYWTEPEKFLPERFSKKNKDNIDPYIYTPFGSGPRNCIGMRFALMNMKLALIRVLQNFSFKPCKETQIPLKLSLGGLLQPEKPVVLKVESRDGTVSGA
Cytochrome P450 2D6, sequence (P10635 whole entry): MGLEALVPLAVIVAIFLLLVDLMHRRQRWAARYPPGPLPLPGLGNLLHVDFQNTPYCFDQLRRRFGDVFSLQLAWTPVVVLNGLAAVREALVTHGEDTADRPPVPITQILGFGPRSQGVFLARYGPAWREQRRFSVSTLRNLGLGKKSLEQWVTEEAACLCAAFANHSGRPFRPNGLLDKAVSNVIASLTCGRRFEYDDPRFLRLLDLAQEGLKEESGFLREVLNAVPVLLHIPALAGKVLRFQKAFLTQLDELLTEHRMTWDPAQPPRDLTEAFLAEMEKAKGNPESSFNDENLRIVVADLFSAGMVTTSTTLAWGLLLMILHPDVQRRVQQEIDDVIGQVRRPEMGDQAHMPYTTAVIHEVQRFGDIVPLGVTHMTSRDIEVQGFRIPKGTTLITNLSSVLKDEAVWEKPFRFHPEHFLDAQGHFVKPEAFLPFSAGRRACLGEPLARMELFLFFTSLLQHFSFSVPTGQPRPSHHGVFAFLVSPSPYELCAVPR
Glutamate receptor ionotropic, NMDA 2A, sequence (Q12879 whole entry, one chain of several): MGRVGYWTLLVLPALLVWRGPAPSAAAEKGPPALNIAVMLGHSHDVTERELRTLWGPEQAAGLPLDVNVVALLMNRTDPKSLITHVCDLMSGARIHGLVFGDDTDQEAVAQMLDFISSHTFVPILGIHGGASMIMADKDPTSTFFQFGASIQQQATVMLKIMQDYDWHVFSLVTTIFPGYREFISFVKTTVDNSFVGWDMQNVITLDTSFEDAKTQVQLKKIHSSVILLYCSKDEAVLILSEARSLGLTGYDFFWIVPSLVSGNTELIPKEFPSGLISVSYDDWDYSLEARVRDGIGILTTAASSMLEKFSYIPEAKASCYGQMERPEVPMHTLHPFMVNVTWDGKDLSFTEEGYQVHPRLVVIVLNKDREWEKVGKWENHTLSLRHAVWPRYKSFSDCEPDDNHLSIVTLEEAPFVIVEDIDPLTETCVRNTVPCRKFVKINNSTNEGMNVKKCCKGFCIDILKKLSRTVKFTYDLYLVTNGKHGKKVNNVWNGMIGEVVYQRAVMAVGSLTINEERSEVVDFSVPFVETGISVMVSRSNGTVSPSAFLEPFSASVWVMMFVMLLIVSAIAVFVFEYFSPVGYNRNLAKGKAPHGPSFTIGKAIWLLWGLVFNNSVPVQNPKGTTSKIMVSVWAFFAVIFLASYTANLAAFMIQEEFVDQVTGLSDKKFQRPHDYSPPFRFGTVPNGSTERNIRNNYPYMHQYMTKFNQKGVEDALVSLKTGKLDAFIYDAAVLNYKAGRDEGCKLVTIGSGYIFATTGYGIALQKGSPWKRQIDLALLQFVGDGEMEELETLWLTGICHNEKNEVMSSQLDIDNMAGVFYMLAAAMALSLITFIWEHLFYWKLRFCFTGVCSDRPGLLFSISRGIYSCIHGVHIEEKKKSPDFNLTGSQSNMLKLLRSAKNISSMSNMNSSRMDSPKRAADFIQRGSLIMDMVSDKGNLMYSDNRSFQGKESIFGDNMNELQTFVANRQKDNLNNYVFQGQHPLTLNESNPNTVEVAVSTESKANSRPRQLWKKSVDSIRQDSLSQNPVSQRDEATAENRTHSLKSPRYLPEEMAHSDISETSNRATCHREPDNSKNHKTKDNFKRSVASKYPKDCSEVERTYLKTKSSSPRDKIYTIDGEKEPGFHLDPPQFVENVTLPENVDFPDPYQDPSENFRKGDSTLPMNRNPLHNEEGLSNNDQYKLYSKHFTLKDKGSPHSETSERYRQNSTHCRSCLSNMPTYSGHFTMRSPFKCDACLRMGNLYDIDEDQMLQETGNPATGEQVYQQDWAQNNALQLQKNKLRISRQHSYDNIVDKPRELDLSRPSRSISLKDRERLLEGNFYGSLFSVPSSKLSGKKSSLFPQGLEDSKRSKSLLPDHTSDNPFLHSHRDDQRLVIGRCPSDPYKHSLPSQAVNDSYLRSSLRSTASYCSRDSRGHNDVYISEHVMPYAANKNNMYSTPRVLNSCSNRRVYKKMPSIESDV

pKi [1]: 6.64
Structure (SMILES): O=C(OCCc1ccccc1)N1CCC(CNc2ncccn2)CC1

pIC50 [2]: 5.77 | pKi [1]: 7.85 | pIC50 [3]: 4.66 | pIC50 [4]: 4.92
Structure (SMILES): O=C(OCc1ccccc1)N1CCC(CNc2cnccn2)CC1

pKi [1]: 7.64
Structure (SMILES): O=C(OC1Cc2ccccc2C1)N1CCC(CNc2ncccn2)CC1

Structure (SMILES): Cc1ccc(COC(=O)N2CCC(Nc3ncccn3)CC2)cc1
pKi [1]: < 4.82

pKi [1]: 5.51
Structure (SMILES): N#CN=C(NCc1ccccc1)NN1CCC(CNc2ncccn2)CC1

pEC50 [5]: 8.80 | concentration at 1 h [6]: 8100 nM | bioavailability [7]: > 100% | AUC [9]: 1.9 µM·h | bioavailability [10]: 11% | half-life [11]: 1.4 h | Cmax [12]: 50 nM | concentration at 1 h [14]: 11000 nM | half-life [16]: 6.5 h | Cmax [17]: 5200 nM | pIC50 [2]: 4.82 | pKi [1]: 7.97 | pEC50 [18]: < 5.00 | AUC [19]: 1.7 µM·h | pIC50 [3]: < 4.60 | pIC50 [4]: 5.19
Structure (SMILES): O=C(OCc1ccccc1)N1CCC(CNc2ccncc2)CC1
ED50 [8]: 10 mg/kg | Selectivity ratio [13]: 90 | ED50 [15]: 3 mg/kg

Structure (SMILES): O=C(OCc1ccccc1)N1CCC(CNc2ccncn2)CC1
concentration at 1 h [6]: 1100 nM | concentration at 1 h [14]: 700 nM | pIC50 [2]: 5.89 | pKi [1]: 7.12 | pIC50 [4]: 6.30

pKi [1]: 5.93
Structure (SMILES): O=C(NCc1ccccc1)N1CCC(CNc2ncccn2)CC1

pKi [1]: 8.11
Structure (SMILES): CC(C)c1ccc(COC(=O)N2CCC(CNc3ncccn3)CC2)cc1

Structure (SMILES): Cc1ccc(COC(=O)N2CCC(CNc3ncccn3)CC2)cc1
pEC50 [5]: 8.25 | bioavailability [7]: 45% | concentration at 1 h [20]: 850 nM | Activity [21]: < 30% | fraction unbound [22]: 0.153 | concentration at […] [23]: 960 nM | concentration at […] [24]: 510 nM | Cmax [25]: 600 nM | half-life [26]: 6.9 h | AUC [9]: 7.1 µM·h | Activity [27]: 50% | bioavailability [10]: 24% | Activity [28]: < 30% | Activity [29]: Active | half-life [11]: 2.7 h | Activity [30]: Active | half-life [31]: 2.2 h | ED50 [32]: 1 mg/kg | Cmax [12]: 840 nM | AUC [33]: 5.2 µM·h | bioavailability [34]: 26% | Activity [35]: Active | Cmax [17]: 3900 nM | Kp [36]: 1.4 | concentration [37]: 10200 nM | Activity [38]: < 30% | pKi [1]: 8.47 | Activity [39]: Active | Activity [40]: Active | Activity [41]: < 30% | Activity [42]: Active | concentration at 1 h [43]: 1800 nM | Activity [44]: inactive | AUC [45]: 7.5 µM·h

pIC50 [2]: < 5.00 | pKi [1]: 6.91 | pIC50 [3]: < 5.00 | pIC50 [4]: < 5.00
Structure (SMILES): O=C(OCc1ccccc1)N1CCC(CNc2nccs2)CC1

pKi [1]: 5.68
Structure (SMILES): Cc1ccc(COC(=O)N2CCC(CN(C)c3ncccn3)CC2)cc1

pKi [1]: 6.64
Structure (SMILES): Cc1ccccc1COC(=O)N1CCC(CNc2ncccn2)CC1

Structure (SMILES): O=C(OCc1cccc(F)c1)N1CCC(CNc2ncccn2)CC1
pKi [1]: 6.82

pKi [1]: 5.13
Structure (SMILES): Cc1ccc(COC(=O)N2CCC(COc3ncccn3)CC2)cc1

pKi [1]: 6.58
Structure (SMILES): c1ccc(CCCN2CCC(CNc3ncccn3)CC2)cc1

pKi [1]: 7.74
Structure (SMILES): O=C(OCc1ccccc1F)N1CCC(CNc2ncccn2)CC1

concentration at 1 h [6]: 180 nM | concentration at 1 h [14]: 170 nM | pIC50 [2]: < 4.60 | pKi [1]: 7.43 | pIC50 [3]: < 4.60 | pIC50 [4]: < 4.60
Structure (SMILES): O=C(OCc1ccccc1)N1CCC(CNc2ccccn2)CC1

pKi [1]: 6.66
Structure (SMILES): O=C(OCc1ccccc1)N1CCC(Cc2nc3ccccc3[nH]2)CC1

pIC50 [2]: < 4.60 | pKi [1]: 6.72
Structure (SMILES): O=C(OCc1ccccc1)N1CCC(CNc2nncs2)CC1

pKi [1]: 6.34
Structure (SMILES): COc1ccc(COC(=O)N2CCC(CNc3ncccn3)CC2)cc1

pKi [1]: 6.14
Structure (SMILES): CC(C)(C)c1ccc(COC(=O)N2CCC(CNc3ncccn3)CC2)cc1

concentration at 1 h [6]: 7200 nM | concentration at 1 h [14]: 3100 nM | pIC50 [2]: < 4.60 | pKi [1]: 7.64 | pIC50 [3]: < 4.60 | pIC50 [4]: < 4.60
Structure (SMILES): O=C(OCc1ccccc1)N1CCC(CNc2ncccn2)CC1

pKi [1]: 7.74
Structure (SMILES): O=C(OCc1ccc(F)cc1)N1CCC(CNc2ncccn2)CC1

pIC50 [5]: 6.99 | pKi [1]: 7.03 | pIC50 [18]: < 4.70
Structure (SMILES): c1ccc(COc2ccc(CCNc3ccncc3)cc2)cc1
pIC50 [46]: 6.89

pKi [1]: 8.43
Structure (SMILES): CCc1ccc(COC(=O)N2CCC(CNc3ncccn3)CC2)cc1

pKi [1]: 6.51
Structure (SMILES): O=C(CCc1ccccc1)N1CCC(CNc2ncccn2)CC1

pIC50 [2]: 5.77 | pKi [1]: 6.74 | pIC50 [3]: 5.04 | pIC50 [4]: 4.92
Structure (SMILES): O=C(OCc1ccccc1)N1CCC(CNc2cccnc2)CC1

pKi [1]: 6.69
Structure (SMILES): Cc1cccc(COC(=O)N2CCC(CNc3ncccn3)CC2)c1

pKi [1]: 6.27
Structure (SMILES): CC(OC(=O)N1CCC(CNc2ncccn2)CC1)c1ccccc1 (racemic)
